Experimental data published in patent US11524951B2, “2-(2,4,5-substituted-anilino)pyrimidine compounds” (AstraZeneca AB, priority 2011, dated 2022).

Legend:
Type in all cases: cell-based
Exon19 deletion EGFR = target: T1, Exon19 deletion EGFR (Homo sapiens, UniProt P00533, DEL746-750); assay: Exon19 deletion EGFR (activating single mutant) cellular phosphorylation assay; settings: PC9 human lung cells (Exon 19 deletion EGFR); endogenous p-EGFR in cell lysates by ELISA; 2 h with compound; read-out: Assay 1 (IC50)
T1 construct: Assays to measure cellular phosphorylation of endogenous p-EGFR in cell lysates; endogenous in cells; host or cells: PC9 (human lung cell line)
T1 sequence (P00533 with tags, fused parts or gaps DEL746-750): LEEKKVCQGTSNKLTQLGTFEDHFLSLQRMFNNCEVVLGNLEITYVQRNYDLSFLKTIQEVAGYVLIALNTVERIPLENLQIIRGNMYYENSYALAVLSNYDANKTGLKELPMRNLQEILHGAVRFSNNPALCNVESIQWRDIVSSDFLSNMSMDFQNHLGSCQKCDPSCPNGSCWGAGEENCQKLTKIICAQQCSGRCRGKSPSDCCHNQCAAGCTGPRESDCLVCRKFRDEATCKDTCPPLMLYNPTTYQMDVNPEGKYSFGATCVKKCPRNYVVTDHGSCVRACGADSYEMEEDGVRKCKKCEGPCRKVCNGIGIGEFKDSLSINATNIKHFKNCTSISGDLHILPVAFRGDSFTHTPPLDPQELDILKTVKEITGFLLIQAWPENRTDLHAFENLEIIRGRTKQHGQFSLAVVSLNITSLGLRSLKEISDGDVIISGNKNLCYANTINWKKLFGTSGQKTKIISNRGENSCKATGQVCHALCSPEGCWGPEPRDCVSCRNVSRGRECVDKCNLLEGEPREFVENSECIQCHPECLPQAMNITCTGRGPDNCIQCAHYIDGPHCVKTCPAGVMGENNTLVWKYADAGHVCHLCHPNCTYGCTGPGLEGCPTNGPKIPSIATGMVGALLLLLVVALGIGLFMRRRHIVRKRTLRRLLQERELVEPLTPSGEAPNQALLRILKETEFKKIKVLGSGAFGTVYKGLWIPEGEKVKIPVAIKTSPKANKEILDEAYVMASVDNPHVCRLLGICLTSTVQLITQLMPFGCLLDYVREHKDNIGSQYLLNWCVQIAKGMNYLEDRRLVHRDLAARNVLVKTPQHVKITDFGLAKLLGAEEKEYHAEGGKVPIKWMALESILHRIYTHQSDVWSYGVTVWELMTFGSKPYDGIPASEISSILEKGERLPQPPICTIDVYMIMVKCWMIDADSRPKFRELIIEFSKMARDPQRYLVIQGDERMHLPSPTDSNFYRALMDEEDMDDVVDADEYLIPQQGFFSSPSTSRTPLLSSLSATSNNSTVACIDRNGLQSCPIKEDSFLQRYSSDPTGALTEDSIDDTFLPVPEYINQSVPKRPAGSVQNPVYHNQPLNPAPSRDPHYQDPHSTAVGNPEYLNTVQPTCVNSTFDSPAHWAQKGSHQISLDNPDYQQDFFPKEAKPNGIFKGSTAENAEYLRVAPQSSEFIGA

L858R/T790M EGFR = target: T2, L858R/T790M EGFR (Homo sapiens, UniProt P00533, L858R/T790M); assay: L858R/T790M EGFR (double mutant) cellular phosphorylation assay; settings: NCI-H1975 human lung cells; endogenous p-EGFR in cell lysates by ELISA; 2 h with compound
T2 construct: Assays to measure cellular phosphorylation of endogenous p-EGFR in cell lysates; endogenous in cells; host or cells: NCI-H1975 (human lung cell line)
T2 sequence (P00533 25-1210 T790M/L858R): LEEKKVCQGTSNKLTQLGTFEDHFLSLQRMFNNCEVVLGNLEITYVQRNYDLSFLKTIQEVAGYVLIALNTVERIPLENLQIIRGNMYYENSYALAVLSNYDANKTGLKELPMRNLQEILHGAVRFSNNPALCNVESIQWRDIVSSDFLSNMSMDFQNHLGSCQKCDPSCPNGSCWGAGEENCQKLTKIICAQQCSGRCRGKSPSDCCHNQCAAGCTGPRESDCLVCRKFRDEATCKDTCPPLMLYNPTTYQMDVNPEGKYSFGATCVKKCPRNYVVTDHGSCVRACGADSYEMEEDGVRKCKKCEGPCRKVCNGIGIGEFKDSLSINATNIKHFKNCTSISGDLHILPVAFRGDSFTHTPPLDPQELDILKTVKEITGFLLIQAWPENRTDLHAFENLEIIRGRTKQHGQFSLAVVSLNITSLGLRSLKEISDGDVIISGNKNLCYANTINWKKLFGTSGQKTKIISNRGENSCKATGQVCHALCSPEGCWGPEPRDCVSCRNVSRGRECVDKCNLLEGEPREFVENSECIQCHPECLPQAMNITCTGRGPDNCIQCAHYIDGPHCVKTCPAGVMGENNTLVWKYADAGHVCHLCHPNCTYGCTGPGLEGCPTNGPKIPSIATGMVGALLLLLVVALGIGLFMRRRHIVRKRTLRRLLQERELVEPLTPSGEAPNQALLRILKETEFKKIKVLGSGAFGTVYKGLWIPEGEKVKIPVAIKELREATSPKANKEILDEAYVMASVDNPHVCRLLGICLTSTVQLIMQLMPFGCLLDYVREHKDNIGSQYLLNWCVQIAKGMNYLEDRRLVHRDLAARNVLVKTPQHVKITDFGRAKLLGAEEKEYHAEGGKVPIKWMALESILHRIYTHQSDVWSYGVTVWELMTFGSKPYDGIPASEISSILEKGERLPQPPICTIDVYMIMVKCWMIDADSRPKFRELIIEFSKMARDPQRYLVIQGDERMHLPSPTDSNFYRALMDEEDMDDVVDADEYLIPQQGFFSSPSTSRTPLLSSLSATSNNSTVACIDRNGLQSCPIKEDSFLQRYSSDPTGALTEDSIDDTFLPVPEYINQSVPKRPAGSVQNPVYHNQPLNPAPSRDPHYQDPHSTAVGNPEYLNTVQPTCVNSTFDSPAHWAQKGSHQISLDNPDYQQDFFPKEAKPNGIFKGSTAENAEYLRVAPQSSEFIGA

Wild-type EGFR = target: T3, Wild-type EGFR (Homo sapiens, UniProt P00533); assay: Wild-type EGFR cellular phosphorylation assay; settings: LoVo human colon cells; endogenous p-EGFR in cell lysates by ELISA; 2 h with compound, then stimulated 100 ng/ml for 10 minutes; read-out: Assay 3 (IC50)
T3 construct: Assays to measure cellular phosphorylation of endogenous p-EGFR in cell lysates; endogenous in cells; host or cells: LoVo (human colon cell line)
T3 sequence (P00533 25-1210): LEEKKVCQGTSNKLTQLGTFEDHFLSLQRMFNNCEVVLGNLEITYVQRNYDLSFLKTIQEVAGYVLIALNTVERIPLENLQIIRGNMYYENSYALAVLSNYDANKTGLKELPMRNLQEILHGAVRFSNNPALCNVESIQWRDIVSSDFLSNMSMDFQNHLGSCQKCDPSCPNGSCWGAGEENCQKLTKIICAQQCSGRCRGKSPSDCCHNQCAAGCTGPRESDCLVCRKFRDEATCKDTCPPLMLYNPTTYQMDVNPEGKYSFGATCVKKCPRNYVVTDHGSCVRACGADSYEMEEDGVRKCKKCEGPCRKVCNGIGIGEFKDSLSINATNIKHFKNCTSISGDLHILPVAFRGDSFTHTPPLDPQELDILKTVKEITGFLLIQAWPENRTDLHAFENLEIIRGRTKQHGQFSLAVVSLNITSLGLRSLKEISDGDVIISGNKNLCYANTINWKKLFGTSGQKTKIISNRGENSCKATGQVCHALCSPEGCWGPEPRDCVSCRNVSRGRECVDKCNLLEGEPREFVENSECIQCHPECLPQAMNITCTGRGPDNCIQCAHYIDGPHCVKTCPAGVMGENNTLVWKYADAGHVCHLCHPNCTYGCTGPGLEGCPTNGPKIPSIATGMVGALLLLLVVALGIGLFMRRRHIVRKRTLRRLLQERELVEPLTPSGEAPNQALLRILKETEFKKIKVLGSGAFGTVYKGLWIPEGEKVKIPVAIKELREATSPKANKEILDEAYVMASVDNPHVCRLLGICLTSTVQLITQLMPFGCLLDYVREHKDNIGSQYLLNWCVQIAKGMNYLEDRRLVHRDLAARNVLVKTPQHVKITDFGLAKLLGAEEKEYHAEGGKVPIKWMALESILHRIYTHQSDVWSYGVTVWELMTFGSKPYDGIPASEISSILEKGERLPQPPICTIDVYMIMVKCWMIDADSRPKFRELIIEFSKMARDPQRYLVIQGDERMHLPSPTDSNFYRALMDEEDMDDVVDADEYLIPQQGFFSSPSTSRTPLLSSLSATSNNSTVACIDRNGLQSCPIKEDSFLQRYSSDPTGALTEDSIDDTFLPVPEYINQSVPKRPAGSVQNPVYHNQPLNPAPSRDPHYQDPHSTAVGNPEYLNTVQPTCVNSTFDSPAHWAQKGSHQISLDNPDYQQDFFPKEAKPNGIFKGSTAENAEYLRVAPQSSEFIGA

`C=CC(=O)Nc1cc(Nc2nccc(-c3cnn4ccccc34)n2)c(OC)cc1N1CC(N(C)C)C1` [Example 53, N-{2-(3-Dimethylaminoazetidin-1-yl)-4-methoxy-5-[(4-pyrazolo[1,5-a]pyridin-3-ylpyrimidin-2-yl)amino]phenyl}prop-2-enamide] was tested, and the IC50 (Exon19 deletion EGFR) was 35.4 nM, the IC50 (L858R/T790M EGFR) was 28.2 nM and the IC50 (Wild-type EGFR) was 2640 nM.

`C=CC(=O)Nc1cc(Nc2nccc(-c3cnn4ccccc34)n2)c(OC)cc1N(C)CCN(C)C` [Example 54, N-{2-[2-Dimethylaminoethyl-methylamino]-4-methoxy-5-[(4-pyrazolo[1,5-a]pyridin-3-ylpyrimidin-2-yl)amino]phenyl}prop-2-enamide] gave an IC50 (Exon19 deletion EGFR) of 3.22 nM, an IC50 (L858R/T790M EGFR) of 2.8 nM and an IC50 (Wild-type EGFR) of 183 nM.

Work on `C=CC(=O)Nc1cc(Nc2nccc(-c3cnn4ccccc34)n2)c(OC)cc1N1CC[C@@H]2CN(C)C[C@@H]21` [Example 55, N-[2-[(3aR,6aR)-5-Methyl-2,3,3a,4,6,6a-hexahydropyrrolo[3,4-b]pyrrol-1-yl]-4-methoxy-5-[(4-pyrazolo[1,5-a]pyridin-3-ylpyrimidin-2-yl)amino]phenyl]prop-2-enamide] yielded an IC50 (Exon19 deletion EGFR) of 6.43 nM, an IC50 (L858R/T790M EGFR) of 2.86 nM and an IC50 (Wild-type EGFR) of 507 nM.

Molecule `C=CC(=O)Nc1cc(Nc2nccc(-c3cnn4ccccc34)n2)c(OC)cc1N1CC2(CCCN2C)C1` [Example 56, N-{4-Methoxy-2-[8-methyl-2,8-diazaspiro[3.4]octan-2-yl]-5-[(4-pyrazolo[1,5-a]pyridin-3-ylpyrimidin-2-yl)amino]phenyl}prop-2-enamide] has an IC50 (Exon19 deletion EGFR) of 44.3 nM, an IC50 (L858R/T790M EGFR) of 29.2 nM and an IC50 (Wild-type EGFR) of 3500 nM.

In the case of `C=CC(=O)Nc1cc(Nc2nccc(-c3c[nH]c4ccccc34)n2)c(OC)cc1N1CC[C@@H](N(C)C)C1` [Example 57, N-(2-{(3R)-3-Dimethylaminopyrrolidin-1-yl}-5-{[4-(1H-indol-3-yl)pyrimidin-2-yl]amino}-4-methoxyphenyl)prop-2-enamide], the IC50 (Exon19 deletion EGFR) is reported as 6.45 nM, the IC50 (L858R/T790M EGFR) is reported as 14.5 nM and the IC50 (Wild-type EGFR) is reported as 89.3 nM.

With `C=CC(=O)Nc1cc(Nc2nccc(-c3c[nH]c4ccccc34)n2)c(OC)cc1N1CC(N(C)C)C1` [Example 58, N-(2-[3-Dimethylaminoazetidin-1-yl]-5-{[4-(1H-indol-3-yl)pyrimidin-2-yl]amino}-4-methoxyphenyl)prop-2-enamide] the IC50 (Exon19 deletion EGFR) was 7.08 nM, the IC50 (L858R/T790M EGFR) was 16.8 nM and the IC50 (Wild-type EGFR) was 179 nM.

With `C=CC(=O)Nc1cc(Nc2nccc(-c3c[nH]c4ccccc34)n2)c(OC)cc1N(C)CCN(C)C` [Example 59, N-(2-[2-Dimethylaminoethyl-methylamino]-5-{[4-(1H-indol-3-yl)pyrimidin-2-yl]amino}-4-methoxyphenyl)prop-2-enamide] the IC50 (Exon19 deletion EGFR) was 2.27 nM, the IC50 (L858R/T790M EGFR) was 3.02 nM and the IC50 (Wild-type EGFR) was 28.2 nM.

Work on `C=CC(=O)Nc1cc(Nc2nccc(-c3cn(C)c4ccccc34)n2)c(OC)cc1N(C)CCNC` [Example 60, N-(4-Methoxy-5-{[4-(1-methylindol-3-yl)pyrimidin-2-yl]amino}-2-[methyl-(2-methylaminoethyl)amino]phenyl)prop-2-enamide] yielded an IC50 (Exon19 deletion EGFR) of 14.6 nM, an IC50 (L858R/T790M EGFR) of 48.9 nM and an IC50 (Wild-type EGFR) of 624 nM.
